Laboratory results taken from patent US20220218776A1, “COMPOSITION FOR USE IN A METHOD FOR PREVENTION OR TREATMENT OF MALTNUTRITION IN A SUBJECT SUFFERING FROM A CHRONIC INFLAMMATORY BOWEL DISEASES” (SOFAR S.P.A., priority 2019, published 2022).

Test system: pro-inflammatory patterns typical of IBD
Assay: depression of pro-inflammatory patterns typical of IBD
Conditions: administered alone
Description: According to an aspect of the invention, the casein (ii) contained in the mixture (M), together with (i), (iii) and (iv) (according to any of the described embodiments), is a micellar casein, i.e. in the native form thereof.

In the case of casein, the “pro-inflammatory patterns typical of IBD” value is reported as “capable of depressing pro-inflammatory patterns typical of IBD”.
